Data published in the supplement of paper PMC10307832.

Experiments:
Experiment in all cases: relative viability (nuclei count vs DMSO), 5 days (fraction); higher = more cells survive
[1] = system: 201T
How it was run: (§1)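 The day after seeding in 1536-well plates, lung cancer cell lines were treated by pin tool with a single drug, or with a fixed anchor-drug dose together with five library-drug doses (not always all listed) in √10 steps. After 5 days, a combined fix-and-stain solution (final 0.05% Triton X-100, 1% formaldehyde, 1 ug/ml Hoechst) was added. Nuclei counted on 4× images gave relative viability as treated counts over vehicle counts, reported as the median of duplicate plates.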

[2] = system: ABC-1
How it was run: as §1

[3] = system: ChaGo-K-1
How it was run: as §1

[4] = system: EKVX
How it was run: as §1

[5] = system: EMC-BAC-2
How it was run: as §1

[6] = system: HCC-44
How it was run: as §1

[7] = system: HCC-78
How it was run: as §1

[8] = system: HOP-62
How it was run: as §1

[9] = system: LC-2-ad
How it was run: as §1

[10] = system: NCI-H1355
How it was run: as §1

[11] = system: NCI-H2009
How it was run: as §1

[12] = system: NCI-H2228
How it was run: as §1

[13] = system: NCI-H2347
How it was run: as §1

[14] = system: NCI-H3122
How it was run: as §1

[15] = system: NCI-H838
How it was run: as §1

[16] = system: PC-14
How it was run: as §1

[17] = system: RERF-LC-KJ
How it was run: as §1

[18] = system: SW 1573
How it was run: as §1

[19] = system: UMC-11
How it was run: as §1

[20] = system: LK-2
How it was run: as §1

[21] = system: SK-MES-1
How it was run: as §1

## COCC1(CO)C(=O)C2CCN1CC2 (stereo not drawn) [PRIMA-1MET] + CC(C)C[C@H](NC(=O)[C@H](Cc1ccccc1)NC(=O)c1cnccn1)B(O)O [Bortezomib] (partner 0.002 µM)
[1]; first compound 0.2 µM
  relative viability: 1.18
[1]; first compound 0.6325 µM
  relative viability: 1.07
[1]; first compound 2 µM
  relative viability: 1.07
[1]; first compound 6.325 µM
  relative viability: 1.15
[1]; first compound 20 µM
  relative viability: 1.08
[2]; first compound 0.2 µM
  relative viability: 0.297
[2]; first compound 0.6325 µM
  relative viability: 0.278
[2]; first compound 2 µM
  relative viability: 0.256
[2]; first compound 6.325 µM
  relative viability: 0.287
[2]; first compound 20 µM
  relative viability: 0.276
[3]; first compound 0.2 µM
  relative viability: 1.21
[3]; first compound 0.6325 µM
  relative viability: 0.83
[3]; first compound 2 µM
  relative viability: 1.28
[3]; first compound 6.325 µM
  relative viability: 0.988
[3]; first compound 20 µM
  relative viability: 0.32
[4]; first compound 0.2 µM
  relative viability: 1.16
[4]; first compound 0.6325 µM
  relative viability: 0.851
[4]; first compound 2 µM
  relative viability: 0.943
[4]; first compound 6.325 µM
  relative viability: 1.06
[4]; first compound 20 µM
  relative viability: 0.845
[5]; first compound 0.2 µM
  relative viability: 1.15
[5]; first compound 0.6325 µM
  relative viability: 1.02
[5]; first compound 2 µM
  relative viability: 0.952
[5]; first compound 6.325 µM
  relative viability: 1.03
[5]; first compound 20 µM
  relative viability: 1.08
[6]; first compound 0.2 µM
  relative viability: 0.971
[6]; first compound 0.6325 µM
  relative viability: 0.76
[6]; first compound 2 µM
  relative viability: 0.927
[6]; first compound 6.325 µM
  relative viability: 0.911
[6]; first compound 20 µM
  relative viability: 0.877
[7]; first compound 0.2 µM
  relative viability: 0.694
[7]; first compound 0.6325 µM
  relative viability: 0.521
[7]; first compound 2 µM
  relative viability: 0.452
[7]; first compound 6.325 µM
  relative viability: 0.485
[7]; first compound 20 µM
  relative viability: 0.0823
[8]; first compound 0.2 µM
  relative viability: 1.02
[8]; first compound 0.6325 µM
  relative viability: 0.648
[8]; first compound 2 µM
  relative viability: 0.965
[8]; first compound 6.325 µM
  relative viability: 0.736
[8]; first compound 20 µM
  relative viability: 0.443
[9]; first compound 0.2 µM
  relative viability: 1.11
[9]; first compound 0.6325 µM
  relative viability: 0.981
[9]; first compound 2 µM
  relative viability: 0.695
[9]; first compound 6.325 µM
  relative viability: 1.07
[9]; first compound 20 µM
  relative viability: 0.91
[10]; first compound 0.2 µM
  relative viability: 1.26
[10]; first compound 0.6325 µM
  relative viability: 1.12
[10]; first compound 2 µM
  relative viability: 1.21
[10]; first compound 6.325 µM
  relative viability: 1.31
[10]; first compound 20 µM
  relative viability: 1.18
[11]; first compound 0.2 µM
  relative viability: 0.714
[11]; first compound 0.6325 µM
  relative viability: 0.885
[11]; first compound 2 µM
  relative viability: 0.779
[11]; first compound 6.325 µM
  relative viability: 0.975
[11]; first compound 20 µM
  relative viability: 0.0124
[12]; first compound 0.2 µM
  relative viability: 1.1
[12]; first compound 0.6325 µM
  relative viability: 0.957
[12]; first compound 2 µM
  relative viability: 1.09
[12]; first compound 6.325 µM
  relative viability: 1.04
[12]; first compound 20 µM
  relative viability: 0.0398
[13]; first compound 0.2 µM
  relative viability: 1.33
[13]; first compound 0.6325 µM
  relative viability: 1.11
[13]; first compound 6.325 µM
  relative viability: 1.07
[13]; first compound 20 µM
  relative viability: 0.847
[14]; first compound 0.2 µM
  relative viability: 0.865
[14]; first compound 0.6325 µM
  relative viability: 1.01
[14]; first compound 2 µM
  relative viability: 0.955
[14]; first compound 6.325 µM
  relative viability: 0.986
[14]; first compound 20 µM
  relative viability: 0.999
[15]; first compound 0.2 µM
  relative viability: 0.9
[15]; first compound 0.6325 µM
  relative viability: 0.652
[15]; first compound 2 µM
  relative viability: 0.745
[15]; first compound 6.325 µM
  relative viability: 0.978
[15]; first compound 20 µM
  relative viability: 0.263
[16]; first compound 0.2 µM
  relative viability: 0.98
[16]; first compound 0.6325 µM
  relative viability: 0.722
[16]; first compound 2 µM
  relative viability: 0.856
[16]; first compound 6.325 µM
  relative viability: 1.08
[16]; first compound 20 µM
  relative viability: 0.884
[17]; first compound 0.2 µM
  relative viability: 1.35
[17]; first compound 0.6325 µM
  relative viability: 1.04
[17]; first compound 2 µM
  relative viability: 1.13
[17]; first compound 6.325 µM
  relative viability: 1.15
[17]; first compound 20 µM
  relative viability: 1.04
[18]; first compound 0.2 µM
  relative viability: 1.13
[18]; first compound 0.6325 µM
  relative viability: 0.802
[18]; first compound 2 µM
  relative viability: 1.03
[18]; first compound 6.325 µM
  relative viability: 0.421
[18]; first compound 20 µM
  relative viability: 0.0222
[19]; first compound 0.2 µM
  relative viability: 0.778
[19]; first compound 0.6325 µM
  relative viability: 0.407
[19]; first compound 2 µM
  relative viability: 0.666
[19]; first compound 6.325 µM
  relative viability: 0.771
[19]; first compound 20 µM
  relative viability: 0.777

## COCC1(CO)C(=O)C2CCN1CC2 (stereo not drawn) [PRIMA-1MET] + CS(=O)(=O)CCNCc1ccc(-c2ccc3ncnc(Nc4ccc(OCc5cccc(F)c5)c(Cl)c4)c3c2)o1 [Lapatinib] (partner 2 µM)
[1]; first compound 0.2 µM
  relative viability: 1.15
[1]; first compound 0.6325 µM
  relative viability: 0.695
[1]; first compound 2 µM
  relative viability: 0.834
[1]; first compound 6.325 µM
  relative viability: 1.07
[1]; first compound 20 µM
  relative viability: 1.01
[2]; first compound 0.2 µM
  relative viability: 1.05
[2]; first compound 0.6325 µM
  relative viability: 1.11
[2]; first compound 2 µM
  relative viability: 0.956
[2]; first compound 6.325 µM
  relative viability: 1.17
[2]; first compound 20 µM
  relative viability: 1.03
[4]; first compound 0.2 µM
  relative viability: 0.244
[4]; first compound 0.6325 µM
  relative viability: 0.202
[4]; first compound 2 µM
  relative viability: 0.174
[4]; first compound 6.325 µM
  relative viability: 0.213
[4]; first compound 20 µM
  relative viability: 0.201
[5]; first compound 0.2 µM
  relative viability: 0.918
[5]; first compound 0.6325 µM
  relative viability: 0.895
[5]; first compound 2 µM
  relative viability: 0.766
[5]; first compound 6.325 µM
  relative viability: 0.89
[5]; first compound 20 µM
  relative viability: 0.897
[6]; first compound 0.2 µM
  relative viability: 1.02
[6]; first compound 0.6325 µM
  relative viability: 0.775
[6]; first compound 2 µM
  relative viability: 0.99
[6]; first compound 6.325 µM
  relative viability: 1.01
[6]; first compound 20 µM
  relative viability: 0.994
[7]; first compound 0.2 µM
  relative viability: 0.984
[7]; first compound 0.6325 µM
  relative viability: 0.539
[7]; first compound 6.325 µM
  relative viability: 0.78
[7]; first compound 20 µM
  relative viability: 0.686
[8]; first compound 0.2 µM
  relative viability: 1.17
[8]; first compound 0.6325 µM
  relative viability: 0.911
[8]; first compound 2 µM
  relative viability: 0.887
[8]; first compound 6.325 µM
  relative viability: 1.06
[8]; first compound 20 µM
  relative viability: 0.853
[9]; first compound 0.2 µM
  relative viability: 1.15
[9]; first compound 0.6325 µM
  relative viability: 0.831
[9]; first compound 2 µM
  relative viability: 0.769
[9]; first compound 6.325 µM
  relative viability: 0.936
[9]; first compound 20 µM
  relative viability: 0.963
[20]; first compound 0.2 µM
  relative viability: 0.885
[20]; first compound 0.6325 µM
  relative viability: 0.755
[20]; first compound 2 µM
  relative viability: 0.6
[20]; first compound 6.325 µM
  relative viability: 0.662
[20]; first compound 20 µM
  relative viability: 0.18
[10]; first compound 0.2 µM
  relative viability: 1.12
[10]; first compound 0.6325 µM
  relative viability: 0.933
[10]; first compound 2 µM
  relative viability: 0.893
[10]; first compound 6.325 µM
  relative viability: 1
[10]; first compound 20 µM
  relative viability: 0.998
[11]; first compound 0.2 µM
  relative viability: 0.66
[11]; first compound 0.6325 µM
  relative viability: 0.844
[11]; first compound 2 µM
  relative viability: 0.669
[11]; first compound 6.325 µM
  relative viability: 0.905
[11]; first compound 20 µM
  relative viability: 0.0051
[12]; first compound 0.2 µM
  relative viability: 1.12
[12]; first compound 0.6325 µM
  relative viability: 0.834
[12]; first compound 2 µM
  relative viability: 1.59
[12]; first compound 6.325 µM
  relative viability: 1.23
[12]; first compound 20 µM
  relative viability: 0.0337
[13]; first compound 0.2 µM
  relative viability: 0.939
[13]; first compound 0.6325 µM
  relative viability: 0.856
[13]; first compound 2 µM
  relative viability: 0.57
[13]; first compound 6.325 µM
  relative viability: 0.918
[13]; first compound 20 µM
  relative viability: 1.06
[14]; first compound 0.2 µM
  relative viability: 0.711
[14]; first compound 0.6325 µM
  relative viability: 1.04
[14]; first compound 2 µM
  relative viability: 1.03
[14]; first compound 6.325 µM
  relative viability: 0.996
[14]; first compound 20 µM
  relative viability: 0.954
[15]; first compound 0.2 µM
  relative viability: 1.23
[15]; first compound 0.6325 µM
  relative viability: 0.913
[15]; first compound 2 µM
  relative viability: 0.801
[15]; first compound 6.325 µM
  relative viability: 1.06
[15]; first compound 20 µM
  relative viability: 0.197
[16]; first compound 0.2 µM
  relative viability: 0.396
[16]; first compound 0.6325 µM
  relative viability: 0.326
[16]; first compound 2 µM
  relative viability: 0.251
[16]; first compound 6.325 µM
  relative viability: 0.367
[16]; first compound 20 µM
  relative viability: 0.358
[17]; first compound 0.2 µM
  relative viability: 1.01
[17]; first compound 0.6325 µM
  relative viability: 0.86
[17]; first compound 2 µM
  relative viability: 0.874
[17]; first compound 6.325 µM
  relative viability: 0.928
[17]; first compound 20 µM
  relative viability: 0.883
[21]; first compound 0.2 µM
  relative viability: 0.571
[21]; first compound 0.6325 µM
  relative viability: 0.365
[21]; first compound 2 µM
  relative viability: 0.448
[21]; first compound 6.325 µM
  relative viability: 0.477
[21]; first compound 20 µM
  relative viability: 0.516
[18]; first compound 0.2 µM
  relative viability: 1.26
[18]; first compound 0.6325 µM
  relative viability: 1.04
[18]; first compound 2 µM
  relative viability: 0.999
[18]; first compound 6.325 µM
  relative viability: 0.691
[18]; first compound 20 µM
  relative viability: 0.0423
[19]; first compound 0.2 µM
  relative viability: 1.12
[19]; first compound 0.6325 µM
  relative viability: 0.898
[19]; first compound 2 µM
  relative viability: 0.755
[19]; first compound 6.325 µM
  relative viability: 0.961
[19]; first compound 20 µM
  relative viability: 0.991
